Source: patent US11542255B2, “Sulfonylureas and sulfonylthioureas as NLRP3 inhibitors” (Inflazome Limited, priority 2017, dated 2023)
Where a name gives a salt, the structure may show the parent alone.

What was measured:
[1] = PK protocol, oral administration; format: in vivo, male Sprague Dawley rats; details: male, Sprague Dawley, rat, plasma, dose (mg/kg); for AUC / CL/F / Cmax / Tmax / half-life: po
Experimental: (§1) Pharmacokinetic parameters were determined in male Sprague Dawley rats (Charles River, UK, 250-350 g; or Vital River Laboratory Animal Technology Co Ltd, Beijing, China, 7-9 weeks old). Animals were individually housed during the study and maintained under a 12 h light/dark cycle. Animals had free access to food and water except that some orally dosed animals were food deprived overnight prior to the study.
(§2) For intravenous administration, compounds were formulated as a solution in water or […] in 2 mL/kg dosing volume and administered via tail vein. For oral administration, compounds were formulated as a solution in water or DMSO:water [10:90] in 5 mL/kg dosing volume and administered orally.
(§3) Serial blood samples (about 120-300 μL) were taken from each animal at each of 8 time-points post dose (0.083, 0.25, 0.5, 1, 2, 4, 8 and 24 h) or at each of 12 time-points post dose (0.03, 0.1, 0.17, 0.25, 0.5, 1, 2, 4, 6, 8, 12 and 24 h) or pre-dose and at each of 9 time-points post dose (0.25, 0.5, 1, 2, 4, 6, 8, 12 and 24 h). Samples were held on ice for no longer than 30 minutes before centrifugation (10,000 rpm (8,385 g) for 3 minutes; or 5,696 rpm (3,0009 for 15 minutes) for plasma generation. Plasma was frozen on dry ice prior to boanalysis. PK parameters were generated from LC-MS/MS data using Dotmatics or Phoenix WinNonlin 6.3 software.

NLRP3 [2] = target: T1, NLRP3 (Homo sapiens, UniProt Q96P20); assay: THP-1 cells pyroptosis assay (LPS + nigericin, resazurin readout); format: cell-based; set-up: Seed THP-1 cells (25,000 cells/well) containing 1.0 μg/ml LPS in 40 μl of RPMI medium; host or cells: THP-1 cells; details: NLRP3 inhibitory activity, 1.0 μg/ml LPS, 5 μM nigericin
Procedure, shortened: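 LPS-primed (1 μg/ml) THP-1 cells, 25,000/well in serum-free RPMI, given compound (8-point half-log, 10 μM top; 0.1% DMSO) for 3 h at 37 °C, then nigericin 5 μM for 1 h. Viability by resazurin (100 μM, 1-2 h), Ex 560/Em 590 nm; IC50 from 4-parameter variable-slope fit.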

NLRP3 [3] = target: T1, NLRP3; assay: Human whole blood IL1β release assay (LPS + nigericin, AlphaLisa IL-1β); format: cell-based; set-up: Human whole blood in Li-heparin tubes was obtained from healthy donors from a volunteer donor panel; from tissue; host or cells: human whole blood from healthy donors; details: NLRP3 inhibitory activity, 1 μg/ml LPS, 10 μM nigericin, IL-1β release, read-out: HWB IC50
Procedure, shortened: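 Donor human whole blood (Li-heparin) was primed with 1 μg/mL LPS while incubated with compound (8-point half-log, 10 μM top, 0.1% DMSO) for 3 h at 37° C., then stimulated with 10 μM nigericin for 1 h. Supernatant IL-1β measured by AlphaLISA; IC50 from 4-parameter nonlinear fit.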

[4] = PK protocol, intravenous administration; format: in vivo, male Sprague Dawley rats; details: male, Sprague Dawley, rat, plasma, dose (mg/kg); for Vd: read-out: Vdss
Experimental: as §1, §2, §3

T1 sequence (Q96P20 whole entry): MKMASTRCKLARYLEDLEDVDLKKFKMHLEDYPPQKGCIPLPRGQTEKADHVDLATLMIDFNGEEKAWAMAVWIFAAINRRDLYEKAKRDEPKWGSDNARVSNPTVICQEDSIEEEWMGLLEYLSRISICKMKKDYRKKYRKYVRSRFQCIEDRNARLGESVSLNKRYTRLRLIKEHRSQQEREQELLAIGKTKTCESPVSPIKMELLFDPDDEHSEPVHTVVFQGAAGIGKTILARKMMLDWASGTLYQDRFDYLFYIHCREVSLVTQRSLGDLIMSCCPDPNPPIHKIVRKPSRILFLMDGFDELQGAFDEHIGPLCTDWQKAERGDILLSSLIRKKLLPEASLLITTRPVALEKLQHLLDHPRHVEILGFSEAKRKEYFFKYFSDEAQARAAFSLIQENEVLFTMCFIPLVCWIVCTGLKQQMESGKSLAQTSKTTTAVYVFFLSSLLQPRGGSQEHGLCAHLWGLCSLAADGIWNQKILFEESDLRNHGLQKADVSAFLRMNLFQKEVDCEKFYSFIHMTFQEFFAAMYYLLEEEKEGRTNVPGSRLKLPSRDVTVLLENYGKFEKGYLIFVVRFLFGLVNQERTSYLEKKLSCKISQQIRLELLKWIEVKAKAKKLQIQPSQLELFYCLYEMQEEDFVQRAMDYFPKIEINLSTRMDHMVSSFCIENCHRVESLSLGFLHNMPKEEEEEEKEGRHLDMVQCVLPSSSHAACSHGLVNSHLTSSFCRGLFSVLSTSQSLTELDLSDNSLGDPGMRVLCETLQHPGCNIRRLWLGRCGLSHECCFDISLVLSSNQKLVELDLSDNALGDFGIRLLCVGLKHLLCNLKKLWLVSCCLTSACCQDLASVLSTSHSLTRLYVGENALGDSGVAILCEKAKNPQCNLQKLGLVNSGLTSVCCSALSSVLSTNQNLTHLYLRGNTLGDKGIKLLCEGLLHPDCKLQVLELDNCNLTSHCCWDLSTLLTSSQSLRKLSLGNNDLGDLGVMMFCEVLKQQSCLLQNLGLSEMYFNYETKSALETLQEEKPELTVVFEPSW

Compound | AUC [1] [µg·h/mL] | CL/F [1] [L/h/kg] | Cmax [1] [µg/mL] | Tmax [1] [h] | half-life [1] [h] | IC50 (NLRP3 [2]) [µM] | IC50 (NLRP3 [3]) [µM] | AUC [4] [µg·h/mL] | clearance [4] [L/h/kg] | half-life [4] [h] | Vd [4] [L/kg] | bioavailability [1] [%]
CC(c1cc(S(=O)(=O)NC(=O)Nc2c3c(cc4c2CCC4)CCC3)nn1C)N(C)C (single isomer, unassigned; enantiomer 1) [Example 69, 5-(1-(Dimethylamino)ethyl)-N-((1,2,3,5,6,7-hexahydro-s-indacen-4-yl)carbamoyl)-1-methyl-1H-pyrazole-3-sulfonamide, Enantiomer 1] | 17 | 0.252 | 7.46 | 0.38 | 1.2 | < 0.04 | < 0.4 |  |  |  |  | 
CNCc1cc(S(=O)(=O)NC(=O)Nc2c3c(cc4c2CCC4)CCC3)nn1C(C)C [Example 50, N-((1,2,3,5,6,7-Hexahydro-s-indacen-4-yl)carbamoyl)-1-isopropyl-5-((methylamino)methyl)-1H-pyrazole-3-sulfonamide] | 19.1 | 0.108 | 2.41 | 1.3 | 3.3 | 0.04 to 0.16 | 0.4 to 0.8 | 11.4 | 0.09 | 3.5 | 0.39 | 84
CN(C)Cc1cc(S(=O)(=O)NC(=O)Nc2c3c(cc4c2CCC4)CCC3)nn1C1CC1 [Example 7, 1-Cyclopropyl-5-((dimethylamino)methyl)-N-((1,2,3,5,6,7-hexahydro-s-indacen-4-yl)carbamoyl)-1H-pyrazole-3-sulfonamide] | 21.2 | 0.144 | 6.69 | 1 | 2.2 | < 0.04 | 0.4 to 0.8 | 3.48 | 0.294 | 1.2 | 0.36 | 204
CC(C)c1cc(Cl)cc(C(C)C)c1NC(=O)NS(=O)(=O)c1cc(CN(C)C)n(C)n1 [Example 93, N-((4-Chloro-2,6-diisopropylphenyl)carbamoyl)-5-((dimethylamino)methyl)-1-methyl-1H-pyrazole-3-sulfonamide, Sodium Salt] | 3.31 | 1.08 | 1.1 | 0.36 |  | 0.04 to 0.16 | 0.8 to 1.6 | 4.23 | 0.648 | 3.3 | 1.71 | 31.3
CC(c1cc(S(=O)(=O)NC(=O)Nc2c3c(cc4c2CCC4)CCC3)nn1C)N1CCC1 (stereo not drawn) [Example 76, 5-(1-(Azetidin-1-yl)ethyl)-N-((1,2,3,5,6,7-hexahydro-s-indacen-4-yl)carbamoyl)-1-methyl-1H-pyrazole-3-sulfonamide] | 5.65 | 0.738 | 2.34 | 0.5 | 2.9 | 0.04 to 0.16 | < 0.4 | 4.9 | 0.348 | 3.2 | 0.66 | 45.6
CN(C)Cc1cc(S(=O)(=O)NC(=O)Nc2c3c(cc4c2CCC4)CCC3)nn1C [Example 94, 5-((Dimethylamino)methyl)-N-((1,2,3,5,6,7-hexahydro-s-indacen-4-yl)carbamoyl)-1-methyl-1H-pyrazole-3-sulfonamide] | 12.9 | 0.246 | 7.18 | 0.58 | 1.5 | < 0.04 | < 0.4 | 4.7 | 0.228 | 1.1 | 0.27 | 91.6
CC(c1cc(S(=O)(=O)NC(=O)Nc2c3c(cc4c2CCC4)CCC3)nn1C1CC1)N1CCC1 (stereo not drawn) [Example 25, 5-(˜(Azetidin-1-yl)ethyl)-1-cyclopropyl-N-((1,2,3,5,6,7-hexahydro-s-indacen-4-yl)carbamoyl)-1H-pyrazole-3-sulfonamide] |  |  |  |  |  | < 0.04 | < 0.4 | 3.46 | 0.6 | 1 | 0.58 | 
